Test results taken from patent publication US8207347B2, “Pyridone derivatives as NK3 antagonists” (H. Lundbeck A/S, priority 2009, dated 2012).

Biological target: T1, human NK3 receptor (Homo sapiens, UniProt P29371)
T1 construct: expressed in transfected cells
T1 sequence (P29371 1-465): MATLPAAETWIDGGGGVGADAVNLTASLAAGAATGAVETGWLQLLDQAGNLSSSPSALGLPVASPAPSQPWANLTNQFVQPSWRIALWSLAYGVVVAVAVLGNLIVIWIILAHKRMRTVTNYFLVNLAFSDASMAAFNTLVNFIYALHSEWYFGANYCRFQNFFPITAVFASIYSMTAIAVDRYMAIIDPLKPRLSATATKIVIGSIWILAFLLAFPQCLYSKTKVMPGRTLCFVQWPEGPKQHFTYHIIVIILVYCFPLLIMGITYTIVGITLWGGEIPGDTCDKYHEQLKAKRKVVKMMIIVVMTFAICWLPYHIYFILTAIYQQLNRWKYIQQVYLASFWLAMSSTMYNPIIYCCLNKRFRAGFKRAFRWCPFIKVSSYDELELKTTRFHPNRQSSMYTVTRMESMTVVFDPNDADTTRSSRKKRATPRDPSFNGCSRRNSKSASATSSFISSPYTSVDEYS
Experiment: NK3 receptor binding assay (filter-based competition binding, 3H-AE93103)
Conditions: BHK cell membranes expressing human NK3 receptor; Ki from IC50 by Cheng Prusoff equation; read-out: Affinity (Ki/nM)
Description: BHK cells stably expressing the human NK3 receptor were seeded in harvesting plates in Dulbeccos MEM containing GlutaMax (862 mg/l), 1 mM sodium pyruvate, 10% fetal calf serum, 1% Pen/Strep, 1 mg/ml G418 and were grown at 34° C. in a humidified atmosphere containing 10% CO2. To increase receptor expression, 10 μM trichotatin A was added to the media 24 hours before harvest of the cells at a confluency of app 90%. Prior to the harvesting, the cells were washed twice with PBS without Mg^2+ of Ca^2+ and subsequently scrapped of in 10 ml PBS pr harvesting plate. The cells suspension were centrifuged at 1500×G in three minutes before resuspension in 15 mM Tris-HCl buffer pH 7.5 containing 2 mM MgCl2; 0.3 mM EDTA and 1 mM EGTA (buffer A). The cell suspension was homogenised and subsequently centrifuged at 40000×G in 30 minutes. The membrane-pellet was resuspended in buffer A containing 250 mM sucrose, aliquoted and stored at −80° C.
The assay is performed as a filter-based competition-binding in a 50 mM Tris pH 7.4 assay buffer containing 120 mM NaCl and 3 mM MnCl2. App 0.05 nM ^3H-AE93103 was mixed with test compounds before addition of 0.15 μg of a homogenised NK3 membrane preparation in a total volume of 300 μl. The assay plate is incubated for 90 min at RT before content of the wells is transferred using a cell-harvester to GF/C filter plates, which has been pretreated with 0.1% PEI. The filter is washed 3 times with 1 ml an ice-cold 50 mM Tris buffer, pH 7.4. The filter is dried and added scintillation liquid before the plate is counted in a topcounter 5 minutes pr well.
The total binding, which comprised less than 10% of added radioligand, was defined using assay buffer whereas the non-specific binding was defined in the presence of 1 μM SR142801. The non-specific binding constituted ˜10% of the total binding.
Data points are expressed in percent of the specific binding of ^3H-AE93103 and the […] (concentration causing 50% inhibition of ^3H-AE93103 specific binding) are determined by non-linear regression analysis using a sigmoidal variable slope curve fitting.

Row | Ki | Compound
1 | 7 nM | Cc1c(C(=O)N[C@H](c2cccc(F)c2)C2CCC2)c(C(F)(F)F)c(Br)c(=O)n1-c1ccccc1 [Example 2g, 5-Bromo-2-methyl-6-oxo-1-phenyl-4-trifluoromethyl-1,6-dihydro-pyridine-3-carboxylic acid [(S)-cyclobutyl-(3-fluoro-phenyl)-methyl]-amide]
2 | 24 nM | CCNn1c(C)c(C(=O)N[C@H](c2cccc(F)c2)C2CCC2)c(C)c(Br)c1=O [Example 2c, 5-Bromo-1-ethylamino-2,4-dimethyl-6-oxo-1,6-dihydro-pyridine-3-carboxylic acid [(S)-cyclobutyl-(3-fluoro-phenyl)-methyl]-amide]
3 | 34 nM | Cc1c(C(=O)N[C@H](c2cccc(F)c2)C2CCC2)c(C)n(Cc2ncco2)c(=O)c1C#N [Example 3d, 5-Cyano-2,4-dimethyl-1-oxazol-2-ylmethyl-6-oxo-1,6-dihydro-pyridine-3-carboxylic acid [(S)-cyclobutyl-(3-fluoro-phenyl)-methyl]-amide]
4 | 24 nM | Cc1c(C(=O)N[C@H](c2cccc(F)c2)C2CCC2)c(C(F)(F)F)c(Cl)c(=O)n1-c1ccccc1 [Example 2m, 5-Chloro-2-methyl-6-oxo-1-phenyl-4-trifluoromethyl-1,6-dihydro-pyridine-3-carboxylic acid [(S)-cyclobutyl-(3-fluoro-phenyl)-methyl]-amide]
5 | 90 nM | CCCc1c(C(=O)N[C@H](c2cccc(F)c2)C2CCC2)c(C)n(-c2ccccc2)c(=O)c1Br [Example 2f, 5-Bromo-2-methyl-6-oxo-1-phenyl-4-propyl-1,6-dihydro-pyridine-3-carboxylic acid [(S)-cyclobutyl-(3-fluoro-phenyl)-methyl]-amide]
6 | 52 nM | Cc1c(C(=O)N[C@H](c2cccc(F)c2)C2CCC2)c(C)n(-c2ccccc2)c(=O)c1Br [Example 2a, 5-Bromo-2,4-dimethyl-6-oxo-1-phenyl-1,6-dihydro-pyridine-3-carboxylic acid [(S)-cyclobutyl-(3-fluoro-phenyl)-methyl]-amide]
7 | 22 nM | CCCNn1c(C)c(C(=O)N[C@H](c2cccc(F)c2)C2CCC2)c(C)c(C#N)c1=O [Example 3b, 5-Cyano-2,4-dimethyl-6-oxo-1-propylamino-1,6-dihydro-pyridine-3-carboxylic acid [(S)-cyclobutyl-(3-fluoro-phenyl)-methyl]-amide]
8 | 30 nM | CCCn1c(C)c(C(=O)N[C@H](c2cccc(F)c2)C2CCC2)c(C)c(Br)c1=O [Example 2d, 5-Bromo-2,4-dimethyl-6-oxo-1-propyl-1,6-dihydro-pyridine-3-carboxylic acid [(S)-cyclobutyl-(3-fluoro-phenyl)-methyl]-amide]
9 | 240 nM | C#Cc1c(C)c(C(=O)N[C@H](c2cccc(F)c2)C2CCC2)c(C)n(-c2ccccc2)c1=O [Example 3e, 5-Ethynyl-2,4-dimethyl-6-oxo-1-phenyl-1,6-dihydro-pyridine-3-carboxylic acid [(S)-cyclobutyl-(3-fluoro-phenyl)-methyl]-amide]
10 | 50 nM | CCc1c(C(=O)N[C@H](c2cccc(F)c2)C2CCC2)c(C)n(-c2ccccc2)c(=O)c1Br [Example 2e, 5-Bromo-4-ethyl-2-methyl-6-oxo-1-phenyl-1,6-dihydro-pyridine-3-carboxylic acid [(S)-cyclobutyl-(3-fluoro-phenyl)-methyl]-amide]

The next lines start with the compound.

Row | Compound | Ki
11 | CCCNn1c(C)c(C(=O)N[C@H](c2ccccc2)C2CCC2)c(C)c(Br)c1=O [Example 1i, 5-Bromo-2,4-dimethyl-6-oxo-1-propylamino-1,6-dihydro-pyridine-3-carboxylic acid ((S)-cyclobutyl-phenyl-methyl)-amide] | 16 nM
12 | CCCn1c(C)c(C(=O)N[C@H](c2ccccc2Cl)C2CC2)c(C)c(Br)c1=O [Example 1s, 5-Bromo-2,4-dimethyl-6-oxo-1-propyl-1,6-dihydro-pyridine-3-carboxylic acid [(S)-(2-chloro-phenyl)-cyclopropyl-methyl]-amide] | 67 nM
13 | CCCn1c(C)c(C(=O)N[C@H](c2ccccc2)C2CCC2)c(C)c(Br)c1=O [Example 1z, 5-Bromo-2,4-dimethyl-6-oxo-1-propyl-1,6-dihydro-pyridine-3-carboxylic acid ((S)-cyclobutyl-phenyl-methyl)-amide] | 36 nM
14 | CCCn1c(C)c(C(=O)N[C@H](c2cc(F)cc(F)c2)C2CCC2)c(C)c(Br)c1=O [Example 1ak, 5-Bromo-2,4-dimethyl-6-oxo-1-propyl-1,6-dihydro-pyridine-3-carboxylic acid [(S)-cyclobutyl-(3,5-difluoro-phenyl)-methyl]-amide] | 49 nM

System: not given
Experiment: not given
Conditions: Am. J. Psychiatry, 161, 2004, 975-984; cited from earlier work

Row | Compound | effect in clinical trials, in particular on positive symptoms of psychosis
15 | CC(=O)N(C)C1(c2ccccc2)CCN(CCC[C@]2(c3ccc(Cl)c(Cl)c3)CCCN(C(=O)c3ccccc3)C2)CC1 [Osanetant, osanetant] | superior to placebo

Same assay, conditions: schizophrenics; Curr. Opion. Invest. Drug, 6, 717-721, 2005; cited from earlier work

Row | Compound | effect on cognitive behaviour in clinical trials
16 | CC[C@H](NC(=O)c1c(O)c(-c2ccccc2)nc2ccccc12)c1ccccc1 [talnetant] | ameliorate the cognitive behaviour of schizophrenics

System: not given
Experiment: not given
Conditions: Nature reviews, 4, 967-975, 2005; cited from earlier work

Row | Compound | bioavailability | blood-brain barrier penetration | clearance | solubility
17 | CC(=O)N(C)C1(c2ccccc2)CCN(CCC[C@]2(c3ccc(Cl)c(Cl)c3)CCCN(C(=O)c3ccccc3)C2)CC1 [Osanetant, osanetant] | poor | poor | relatively high | poor
18 | CC[C@H](NC(=O)c1c(O)c(-c2ccccc2)nc2ccccc12)c1ccccc1 [talnetant] | poor | poor | relatively high | poor
